System: HPV16 PsVs
Experiment: Mouse cervicovaginal HPV16 PsV infection model (luciferase in vivo imaging)
Set-up: species or system BALB/c mice
Details: 2 μM in 3% CMC, intravaginal, cytobrush abrasion, imaging 48 h after PsV, n=3
Text: FIG. 11. PolyR inhibits HPV16 infectivity in vivo. (A). Six-week-old to eight-week-old female BALB/c mice were exposed to HPV16 PsVs transducing Luciferase (5×10^8 infection units (IU)/animal). (B). Percent of in vivo infectivity represents % of infection calculated from luciferase readouts from panel A. Error bars represents SD n=3. Luciferase raw data (average radiance photons/s/cm^2) of polyR-untreated mice is considered as 100%.
Until recently, in vivo animal studies on infectivity of HPV were problematic, because productive papillomavirus infection is species-restricted and tissue-restricted, and traditional models use animal papillomaviruses in closely related or native host species. However, a recently developed mouse model of cervicovaginal infection using HPV16 PsVs has overcome such restrictions (Roberts et al., 2007. Nature Medicine 13:857-861). In the original study, 3% carboxymethylcellulose (CMC) was used to mimic the viscosity of a typical vaginal gel and determined that disruption of genital epithelium by chemical (Nonoxynol-9) or mechanical (using cytobrush) injury is crucial for efficient HPV PsV infection. Nonoxynol-9 (N-9) is a highly toxic strong non-ionic detergent that disturbs the normal architecture of animal and human genital epithelium. […] The average radiance per mouse was measured in photons/s/cm^2/sr for a set region (of equal dimensions) among mice.

poly-L-arginine [polyR]
reduction of infection in vivo: 50%
